Measured values from article PMC7416818 (Analytical biochemistry, 2020).
Like-named read-outs stand apart in the source and are kept apart here.

Legend:
NNMT [1] = biological target: T1, NNMT (Homo sapiens, UniProt P40261); settings: read-out: Literature value Km; cofactor; cited from earlier work
T1 sequence (P40261 1-264): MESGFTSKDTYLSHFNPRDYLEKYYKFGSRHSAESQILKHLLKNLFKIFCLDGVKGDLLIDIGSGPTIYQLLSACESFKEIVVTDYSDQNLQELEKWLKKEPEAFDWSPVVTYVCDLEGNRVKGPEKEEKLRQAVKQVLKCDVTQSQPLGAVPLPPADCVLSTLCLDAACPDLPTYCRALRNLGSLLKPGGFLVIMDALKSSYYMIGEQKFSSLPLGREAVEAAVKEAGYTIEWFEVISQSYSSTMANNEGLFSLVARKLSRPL

NNMT [2] = biological target: T1, NNMT; test: FP-based competition binding assay with probe II138
NNMT [3] = biological target: T1, NNMT; test: SAHH-coupled fluorescence assay; type: biochemical; settings: linker effect
NNMT [4] = biological target: T1, NNMT; settings: read-out: Literature value Ki, determined by SAHH coupled assay; cited from earlier work

Row | Compound | Km (NNMT [1]) [µM] | Ki (NNMT [2]) [µM] | Loss in Ki in comparison with LL320 (NNMT [3]) | Difference of Ki in FP assay in comparison with SAHH coupled assay (NNMT [2]; FP Ki versus SAHH-coupled Ki) | Ki (NNMT [4]) [µM]
1 | C[S+](CC[C@H](N)C(=O)[O-])C[C@H]1O[C@@H](n2cnc3c(N)ncnc32)[C@H](O)[C@@H]1O (stereo partly drawn) [AdoMet, S-adenosyl-L-methionine] | 24 ± 6.8 | 20.3 ± 2.9 | – | – | –
2 | NCCCNc1ncnc2c1ncn2[C@@H]1O[C@H](CN(CC#Cc2cccc(C(N)=O)c2)CC[C@H](N)C(=O)O)[C@@H](O)[C@H]1O [compound 10] | – | – | about 100 fold | less than 2 fold | –
3 | 1 methyl quinoline [1-MQ] | – | – | – | – | > 100
4 | NC(=O)c1cccnc1 [NAM, nicotinamide] | – | > 1000 | – | – | > 100
